Experimental data from ChEMBL document CHEMBL3046568, “Synthesis, antimicrobial and DNA cleavage studies of some 4-aryloxymethylcoumarins obtained by reaction of 4-bromomethylcoumarins with bidentate nucleophiles” (2012).
Values after ≈ are worked out from the molar mass of the structure shown. Active and inactive are the calls of the source. The rule behind the calls is not given here.

Tests used:
Enterococcus faecalis = experiment: Antibacterial activity against Enterococcus faecalis MTCC 3382 after 24 hr by disk diffusion method; type: functional; details: for MIC: Enterococcus faecalis, MTCC 3382, 24 h
Escherichia coli [1] = experiment: Induction of Escherichia coli MTCC 1089 DNA cleavage at 50 ug after 2 hr by agarose gel electrophoresis
Aspergillus niger [2] = experiment: Antifungal activity against Aspergillus niger after 3 to 4 days by serial dilution method; type: functional; details: for MIC: Aspergillus niger
Klebsiella pneumoniae = experiment: Antibacterial activity against Klebsiella pneumoniae MTCC 3384 after 24 hr by disk diffusion method; type: functional; details: for MIC: Klebsiella pneumoniae, MTCC 3384, 24 h
Bacillus subtilis = experiment: Antibacterial activity against Bacillus subtilis MTCC 297 after 24 hr by disk diffusion method; type: functional; details: for MIC: Bacillus subtilis, MTCC 297, 24 h
Mucor fuscus = experiment: Antifungal activity against Mucor fuscus after 3 to 4 days by serial dilution method; type: functional; details: for MIC: Mucor fuscus
Candida albicans = experiment: Antifungal activity against Candida albicans after 3 to 4 days by serial dilution method; type: functional; details: for MIC: Candida albicans
Fusarium oxysporum = experiment: Antifungal activity against Fusarium oxysporum after 3 to 4 days by serial dilution method; type: functional; details: for MIC: Fusarium oxysporum
Escherichia coli [3] = experiment: Antibacterial activity against Escherichia coli MTCC 1089 after 24 hr by disk diffusion method; type: functional; details: for MIC: Escherichia coli, MTCC 1089, 24 h
Aspergillus niger [4] = experiment: Induction of Aspergillus niger DNA cleavage at 50 ug after 2 hr by agarose gel electrophoresis
Staphylococcus aureus [5] = experiment: Induction of Staphylococcus aureus MTCC 3160 DNA cleavage at 50 ug after 2 hr by agarose gel electrophoresis
Staphylococcus aureus [6] = experiment: Antibacterial activity against Staphylococcus aureus MTCC 3160 after 24 hr by disk diffusion method; type: functional; details: for MIC: Staphylococcus aureus, MTCC 3160, 24 h
Penicillium chrysogenum = experiment: Antifungal activity against Penicillium chrysogenum after 3 to 4 days by serial dilution method; type: functional; details: for MIC: Penicillium chrysogenum
Aspergillus fumigatus = experiment: Antifungal activity against Aspergillus fumigatus after 3 to 4 days by serial dilution method; type: functional; details: for MIC: Aspergillus fumigatus
Aspergillus niger [7] = experiment: Induction of Aspergillus niger DNA cleavage at 25 ug after 2 hr by agarose gel electrophoresis
Pseudomonas aeruginosa = experiment: Antibacterial activity against Pseudomonas aeruginosa MTCC 1034 after 24 hr by disk diffusion method; type: functional; details: for MIC: Pseudomonas aeruginosa, MTCC 1034, 24 h

SMILES	MIC (Enterococcus faecalis) [µg/mL]	Activity (Escherichia coli [1])	MIC (Aspergillus niger [2]) [µg/mL]	MIC (Klebsiella pneumoniae) [µg/mL]	MIC (Bacillus subtilis) [µg/mL]	MIC (Mucor fuscus) [µg/mL]	MIC (Candida albicans) [µg/mL]	MIC (Fusarium oxysporum) [µg/mL]	MIC (Escherichia coli [3]) [µg/mL]	Activity (Aspergillus niger [4])	Activity (Staphylococcus aureus [5])	MIC (Staphylococcus aureus [6]) [µg/mL]	inhibition zone (IZ) (Enterococcus faecalis) [mm]	inhibition zone (IZ) (Aspergillus niger [2]) [mm]	inhibition zone (IZ) (Klebsiella pneumoniae) [mm]	inhibition zone (IZ) (Bacillus subtilis) [mm]	inhibition zone (IZ) (Mucor fuscus) [mm]	inhibition zone (IZ) (Candida albicans) [mm]	inhibition zone (IZ) (Staphylococcus aureus [6]) [mm]	inhibition zone (IZ) (Penicillium chrysogenum) [mm]	also measured
CCN(CC)c1cccc(OCc2cc(=O)oc3ccc(Cl)cc23)c1	6.25 (≈ 17.5 µM)	Active	6.25 (≈ 17.5 µM)	6.25 (≈ 17.5 µM)	6.25 (≈ 17.5 µM)	6.25 (≈ 17.5 µM)	6.25 (≈ 17.5 µM)	12.5 (≈ 34.9 µM)	12.5 (≈ 34.9 µM)	Active	Active	6.25 (≈ 17.5 µM)	22	22	19	20	21	18	21	23	inhibition zone (IZ) (Fusarium oxysporum): 16 mm; inhibition zone (IZ) (Escherichia coli [3]): 15 mm; MIC (Penicillium chrysogenum): 6.25 µg/mL (≈ 17.5 µM); inhibition zone (IZ) (Aspergillus fumigatus): 22 mm; MIC (Aspergillus fumigatus): 6.25 µg/mL (≈ 17.5 µM); Activity (Aspergillus niger [7]): Active; inhibition zone (IZ) (Pseudomonas aeruginosa): 25 mm; MIC (Pseudomonas aeruginosa): 6.25 µg/mL (≈ 17.5 µM)
Cc1ccc2oc(=O)cc(COc3cccc(OCc4cc(=O)oc5ccc(C)cc45)c3)c2c1	12.5 (≈ 27.5 µM)	inactive	12.5 (≈ 27.5 µM)	12.5 (≈ 27.5 µM)	12.5 (≈ 27.5 µM)	12.5 (≈ 27.5 µM)	25 (≈ 55 µM)	> 100	> 100	inactive	inactive	12.5 (≈ 27.5 µM)	16	17	12	14	16	9	14	16	MIC (Penicillium chrysogenum): 25 µg/mL (≈ 55 µM); inhibition zone (IZ) (Aspergillus fumigatus): 17 mm; MIC (Aspergillus fumigatus): 12.5 µg/mL (≈ 27.5 µM); inhibition zone (IZ) (Pseudomonas aeruginosa): 13 mm; MIC (Pseudomonas aeruginosa): 25 µg/mL (≈ 55 µM)
CC(=O)Nc1cccc(OCc2cc(=O)oc3ccc(Cl)cc23)c1	6.25 (≈ 18.2 µM)	Active	6.25 (≈ 18.2 µM)	6.25 (≈ 18.2 µM)	6.25 (≈ 18.2 µM)	6.25 (≈ 18.2 µM)	6.25 (≈ 18.2 µM)	12.5 (≈ 36.4 µM)	12.5 (≈ 36.4 µM)	Active	Active	6.25 (≈ 18.2 µM)	23	22	19	20	22	20	21	23	inhibition zone (IZ) (Fusarium oxysporum): 16 mm; inhibition zone (IZ) (Escherichia coli [3]): 16 mm; MIC (Penicillium chrysogenum): 6.25 µg/mL (≈ 18.2 µM); inhibition zone (IZ) (Aspergillus fumigatus): 22 mm; MIC (Aspergillus fumigatus): 6.25 µg/mL (≈ 18.2 µM); Activity (Aspergillus niger [7]): Active; inhibition zone (IZ) (Pseudomonas aeruginosa): 23 mm; MIC (Pseudomonas aeruginosa): 6.25 µg/mL (≈ 18.2 µM)
O=c1cc(COc2cccc(O)c2)c2ccc3ccccc3c2o1	25 (≈ 78.5 µM)	inactive	12.5 (≈ 39.3 µM)	12.5 (≈ 39.3 µM)	25 (≈ 78.5 µM)	25 (≈ 78.5 µM)	12.5 (≈ 39.3 µM)	25 (≈ 78.5 µM)	25 (≈ 78.5 µM)	inactive	inactive	25 (≈ 78.5 µM)	13	17	14	12	13	13	10	16	inhibition zone (IZ) (Fusarium oxysporum): 12 mm; inhibition zone (IZ) (Escherichia coli [3]): 13 mm; MIC (Penicillium chrysogenum): 25 µg/mL (≈ 78.5 µM); inhibition zone (IZ) (Aspergillus fumigatus): 15 mm; MIC (Aspergillus fumigatus): 12.5 µg/mL (≈ 39.3 µM); inhibition zone (IZ) (Pseudomonas aeruginosa): 19 mm; MIC (Pseudomonas aeruginosa): 6.25 µg/mL (≈ 19.6 µM)

Further compounds by falling MIC (Enterococcus faecalis), results first:

MIC (Enterococcus faecalis) [µg/mL]	Activity (Escherichia coli [1])	MIC (Aspergillus niger [2]) [µg/mL]	MIC (Klebsiella pneumoniae) [µg/mL]	MIC (Bacillus subtilis) [µg/mL]	MIC (Mucor fuscus) [µg/mL]	MIC (Candida albicans) [µg/mL]	MIC (Fusarium oxysporum) [µg/mL]	MIC (Escherichia coli [3]) [µg/mL]	Activity (Aspergillus niger [4])	Activity (Staphylococcus aureus [5])	MIC (Staphylococcus aureus [6]) [µg/mL]	SMILES	inhibition zone (IZ) (Enterococcus faecalis) [mm]	inhibition zone (IZ) (Aspergillus niger [2]) [mm]	inhibition zone (IZ) (Klebsiella pneumoniae) [mm]	inhibition zone (IZ) (Bacillus subtilis) [mm]	inhibition zone (IZ) (Mucor fuscus) [mm]	inhibition zone (IZ) (Candida albicans) [mm]	inhibition zone (IZ) (Staphylococcus aureus [6]) [mm]	inhibition zone (IZ) (Penicillium chrysogenum) [mm]	also measured
25 (≈ 47.5 µM)	inactive	12.5 (≈ 23.7 µM)	12.5 (≈ 23.7 µM)	25 (≈ 47.5 µM)	25 (≈ 47.5 µM)	12.5 (≈ 23.7 µM)	25 (≈ 47.5 µM)	25 (≈ 47.5 µM)	inactive	inactive	25 (≈ 47.5 µM)	O=c1cc(COc2cccc(OCc3cc(=O)oc4ccc5ccccc5c34)c2)c2c(ccc3ccccc32)o1	11	16	14	12	15	13	12	15	inhibition zone (IZ) (Fusarium oxysporum): 13 mm; inhibition zone (IZ) (Escherichia coli [3]): 11 mm; MIC (Penicillium chrysogenum): 25 µg/mL (≈ 47.5 µM); inhibition zone (IZ) (Aspergillus fumigatus): 15 mm; MIC (Aspergillus fumigatus): 12.5 µg/mL (≈ 23.7 µM); inhibition zone (IZ) (Pseudomonas aeruginosa): 17 mm; MIC (Pseudomonas aeruginosa): 12.5 µg/mL (≈ 23.7 µM)
12.5 (≈ 44.3 µM)	inactive	6.25 (≈ 22.1 µM)	12.5 (≈ 44.3 µM)	12.5 (≈ 44.3 µM)	25 (≈ 88.6 µM)	25 (≈ 88.6 µM)	50 (≈ 177 µM)	50 (≈ 177 µM)	inactive	inactive	12.5 (≈ 44.3 µM)	Cc1ccc2oc(=O)cc(COc3cccc(O)c3)c2c1	15	19	13	15	14	10	13	18	inhibition zone (IZ) (Fusarium oxysporum): 8 mm; inhibition zone (IZ) (Escherichia coli [3]): 8 mm; MIC (Penicillium chrysogenum): 12.5 µg/mL (≈ 44.3 µM); inhibition zone (IZ) (Aspergillus fumigatus): 16 mm; MIC (Aspergillus fumigatus): 12.5 µg/mL (≈ 44.3 µM); inhibition zone (IZ) (Pseudomonas aeruginosa): 14 mm; MIC (Pseudomonas aeruginosa): 25 µg/mL (≈ 88.6 µM)
6.25 (≈ 15.5 µM)	Active	6.25 (≈ 15.5 µM)	6.25 (≈ 15.5 µM)	6.25 (≈ 15.5 µM)	12.5 (≈ 31.1 µM)	12.5 (≈ 31.1 µM)	25 (≈ 62.1 µM)	12.5 (≈ 31.1 µM)	Active	Active	6.25 (≈ 15.5 µM)	CCN(CC)c1cccc(OCc2cc(=O)oc3ccc(Br)cc23)c1	19	20	18	17	18	16	18	21	inhibition zone (IZ) (Fusarium oxysporum): 14 mm; inhibition zone (IZ) (Escherichia coli [3]): 15 mm; MIC (Penicillium chrysogenum): 6.25 µg/mL (≈ 15.5 µM); inhibition zone (IZ) (Aspergillus fumigatus): 20 mm; MIC (Aspergillus fumigatus): 6.25 µg/mL (≈ 15.5 µM); inhibition zone (IZ) (Pseudomonas aeruginosa): 23 mm; MIC (Pseudomonas aeruginosa): 6.25 µg/mL (≈ 15.5 µM)
